From US4654368A, “Tri-organotin silatrane derivatives and pesticidal compositions, fungicides or antifouling agents comprising said compounds as active ingredients” (Nitto Kasei Co., Ltd., priority 1984, dated 1987)

Assays:
Assay type in all cases: in vivo
[1] = test system: Plasmopara viticola; assay: Test on fungicidal effect on downy mildew of grape; conditions: sprayed on grape seedlings
Source text: Sandy soil was filled in plastic pots, and seeds of grape (variety: Neomuscat) were sown, and grown for about 1 month in a greenhouse to obtain young seedlings of grape in the 2-3 leaf stage. A water dilution of an emulsifiable concentrate of a wettable powder of each of the test compounds was sprayed onto the leaves of these seedlings so that the chemical adhered fully to the surfaces of the leaves. After drying the chemical in air, a suspension of conidospores of a […] pathogen of grape (Plasmopara viticola) was inoculated in the seedling by spraying. The seedlings were placed for 2 days in a high humidity condition at 23° C., and subsequently cultivated for 14 days in a greenhouse kept at 20° to 25° C. to cause onset of the disease. Thereafter, the state of the disease was observed.
The degree of disease was calculated by the following method. The examined leaves were classified by indices of 0, 0.5, 1, 2 and 4 according to the degrees of appearance of lesions, and the degree of disease was calculated from the following equation.
0: No fungus colony or lesion was noted on the surface of the leaves.
The control index was calculated from the following equation. [formula]

[2] = test system: Culex pipiens; assay: Test on insecticidal effect on Culex pipiens; conditions: 3.5 ppm, wettable powder of Formulation Example 5 (contains Fenitrothion); for Death rate: final-instar larvae, next day, 1440 min; for Emergence inhibition rate: when all larvae in non-treated area emerged
Description: A wettable powder of each of compounds Nos. 2, 7, 8, 11, 13, 14, 17, 18 and 31 obtained in accordance with Formulation Example 5 was diluted with water to 3.5 ppm. One hundred milliliters of the dilution was put in each of 180 ml. polyethylene cups and 20 final-instar larvae of Culex pipiens were released into the cup. On the next day, the larvae were examined for mortality.
Thereafter, feeds were added to the test areas, and when all larvae n the non-treated area emerged, the emergence inhibition rate was examined.
The death rate and the emergence inhibition rate were rated by three grades as follows: […]

[3] = test system: marine animals and plants; assay: Test on antifouling effects on marine animals and plants in the sea; conditions: Owase Bay; for Fouled state, period of submerging 4 months / Fouled state, period of submerging 8 months / Fouled state, period of submerging 12 months: antifouling paint on vinyl chloride plate
Description: A ship bottom antifouling paint was prepared by adding 24 g of Rosin WW, 12 g of a vinyl copolymer, 4 g of tricresyl phosphate, 10 g of bentonite, 20 g of baryta, 20 g of red iron oxide, 35 g of xylene and 35 g of methyl isobutyl ketone to 40 g of each of compounds Nos. 2, 8, 14, 17, 20 and 32 of the invention and vigorously stirring the mixture at room temperature for 1 hour. The paint was coated on both surfaces of a rigid vinyl chloride resin plate, 17×9×0.3 cm in size, to a dry thickness of about 200 microns. The coated plate was submerged in the sea in Owase Bay, Mie Prefecture, Japan for 12 months, and its fouled state was regularly observed.
The symbols in the table show the following.

[4] = test system: tobacco cutworms (Prodenia litura Fabrficius); assay: Test on insecticidal efficacy on tobacco cutworms; conditions: 500 ppm in artificial feed, 4th-instar larvae, 6 days; wettable powder of Formulation Example 5 (contains Fenitrothion)
Description: A wettable powder of each of compounds Nos. 3, 7, 8, 9, 11, 12, 13, 14, 17, 18 and 31 of the invention obtained in accordance with Formulation Example 5 was diluted with water to 200 times (corresponding to a concentration of 500 ppm). Two milliliters of the dilution was impregnated in 13 g of an artificial feed for tobacco cutworms, and the feed was put in a polyethylene cup having a diameter of 11 cm. Ten 4th-instar larvae of tobacco cutworms were released into the cup, and examined for mortality 6 days later. The above experiment was carried out through two replicates.

[5] = test system: carmine mites (Tetranychus telarius L.); assay: Miticidal effect on carmine mites; design: key: -: Hardly any injury was observed.; +: Some injury was observed.; ++: The same injury as in the non-treated area was noted; conditions: 500 ppm active ingredient, spray plus soil, kidney beans, 8 days later
Description: Female imagoes of carmine mites were caused to live at a rate of 10 per leaf on bineless kidney beans (in the primary leaf stage) in pots 7 days after sowing, and kept in a constant temperature chamber at 25° C. Six days later, a chemical obtained by diluting a wettable powder of each of compounds Nos. 4-6, 9-13, 15, 16, 21, 22, 25, 28-30, 33, 34, 36, 37 and 38 with water to an active ingredient concentration of 500 ppm was sprayed at a rate of 10 ml per pot, and at the same time, 2 ml of the chemical was poured into the soil. Eight days later, injuries to the plants by the mites were examined.
The degree of injury is shown by -, + and ++ as follows: […]

c1cc[c]([Sn]([S]CCC[Si]23OCCN(CCO2)CCO3)([c]2ccccc2)[c]2ccccc2)cc1 [compound 1]
Control index ([1]; 12.5 ppm active ingredient): 97% | Control index ([1]; 50 ppm active ingredient): 100% | Control index ([1]; 200 ppm active ingredient): 100%

c1cc[c]([Sn]([S]CC[Si]23OCCN(CCO2)CCO3)([c]2ccccc2)[c]2ccccc2)cc1 [compound 2, 1-(2-triphenylstannylthioethyl)silatrane]
Death rate [2]: B (less than 90% to 10%) | Emergence inhibition rate [2]: A (90% or higher) | Fouled state, period of submerging 4 months [3]: .circle. | Fouled state, period of submerging 8 months [3]: .circle. | Fouled state, period of submerging 12 months [3]: .circle.

CC1CN2CC(C)O[Si](CC[S][Sn]([c]3ccccc3)([c]3ccccc3)[c]3ccccc3)(O1)OC(C)C2 (centres unmarked) [compound 3]
Control index ([1]; 12.5 ppm active ingredient): 98% | Control index ([1]; 50 ppm active ingredient): 100% | Control index ([1]; 200 ppm active ingredient): 100% | Death rate [4]: 100%

CC(C)([CH2][Sn]([CH2]C(C)(C)c1ccccc1)([CH2]C(C)(C)c1ccccc1)[S]CCC[Si]12OCCN(CCO1)CCO2)c1ccccc1 [compound 4, 1-(3-trineophylstannylthiopropyl)silatrane]
Degree of injury [5]: -

CC(C)([CH2][Sn]([CH2]C(C)(C)c1ccccc1)([CH2]C(C)(C)c1ccccc1)[S]CC[Si]12OCCN(CCO1)CCO2)c1ccccc1 [compound 5]
Degree of injury [5]: -~+

CC1CN2CC(C)O[Si](CC[S][Sn]([CH2]C(C)(C)c3ccccc3)([CH2]C(C)(C)c3ccccc3)[CH2]C(C)(C)c3ccccc3)(O1)OC(C)C2 (centres unmarked) [compound 6]
Degree of injury [5]: -~+

C1CC[CH]([Sn]([S]CC[Si]23OCCN(CCO2)CCO3)([CH]2CCCCC2)[CH]2CCCCC2)CC1 [compound 7]
Death rate [2]: C (less than 10%) | Emergence inhibition rate [2]: A (90% or higher) | Death rate [4]: 100%

CCC[CH2][Sn]([CH2]CCC)([CH2]CCC)[S]CC[Si]12OC(C)CN(CC(C)O1)CC(C)O2 (centres unmarked) [compound 8]
Control index ([1]; 12.5 ppm active ingredient): 94% | Control index ([1]; 50 ppm active ingredient): 100% | Control index ([1]; 200 ppm active ingredient): 100% | Death rate [2]: B (less than 90% to 10%) | Emergence inhibition rate [2]: A (90% or higher) | Death rate [4]: 100% | Fouled state, period of submerging 4 months [3]: .circle. | Fouled state, period of submerging 8 months [3]: .circle. | Fouled state, period of submerging 12 months [3]: .circle.

CC1CN2CC(C)O[Si](CCC[S][Sn]([c]3ccccc3)([c]3ccccc3)[c]3ccccc3)(O1)OC(C)C2 (centres unmarked) [compound 9, 1-(3-triphenylstannylthiopropyl)-3,7,10-trimethylsilatrane]
Control index ([1]; 12.5 ppm active ingredient): 98% | Control index ([1]; 50 ppm active ingredient): 100% | Control index ([1]; 200 ppm active ingredient): 100% | Death rate [4]: 100% | Degree of injury [5]: -

CC1CN2CC(C)O[Si](CCC[S][Sn]([CH2]C(C)(C)c3ccccc3)([CH2]C(C)(C)c3ccccc3)[CH2]C(C)(C)c3ccccc3)(O1)OC(C)C2 (centres unmarked) [compound 10]
Degree of injury [5]: -

CC1CN2CC(C)O[Si](CCC[S][Sn]([CH]3CCCCC3)([CH]3CCCCC3)[CH]3CCCCC3)(O1)OC(C)C2 (centres unmarked) [compound 11]
Control index ([1]; 12.5 ppm active ingredient): 96% | Control index ([1]; 50 ppm active ingredient): 100% | Control index ([1]; 200 ppm active ingredient): 100% | Death rate [2]: B (less than 90% to 10%) | Emergence inhibition rate [2]: A (90% or higher) | Death rate [4]: 100% | Degree of injury [5]: -

C1CC[CH]([Sn]([S]CCC[Si]23OCCN(CCO2)CCO3)([CH]2CCCCC2)[CH]2CCCCC2)CC1 [compound 13]
Death rate [2]: A (90% or higher) | Emergence inhibition rate [2]: A (90% or higher) | Death rate [4]: 100% | Degree of injury [5]: -

CCC[CH2][Sn]([CH2]CCC)([CH2]CCC)[S]CCC[Si]12OCCN(CCO1)CCO2 [compound 14]
Death rate [2]: A (90% or higher) | Emergence inhibition rate [2]: A (90% or higher) | Death rate [4]: 100% | Fouled state, period of submerging 4 months [3]: .circle. | Fouled state, period of submerging 8 months [3]: .circle. | Fouled state, period of submerging 12 months [3]: .circle.

CCCCCCC[CH2][Sn]([CH2]CCCCCCC)([CH2]CCCCCCC)[S]CCC[Si]12OCCN(CCO1)CCO2 [compound 15]
Degree of injury [5]: -

CCCCCCC[CH2][Sn]([CH2]CCCCCCC)([CH2]CCCCCCC)[S]CCC[Si]12OC(C)CN(CC(C)O1)CC(C)O2 (centres unmarked) [compound 16]
Degree of injury [5]: -

CCC1CN2CCO[Si](CCC[S][Sn]([c]3ccccc3)([c]3ccccc3)[c]3ccccc3)(O1)OC(CC)C2 (centres unmarked) [compound 20]
Fouled state, period of submerging 4 months [3]: .circle. | Fouled state, period of submerging 8 months [3]: .circle. | Fouled state, period of submerging 12 months [3]: Δ (Marine animals and plants adhered to less than 5% of the area of the coated film) | Fouled by ([3]; antifouling paint, up to 12 months): Algae

CCC1CN2CCO[Si](CCC[S][Sn]([CH2]C(C)(C)c3ccccc3)([CH2]C(C)(C)c3ccccc3)[CH2]C(C)(C)c3ccccc3)(O1)OC(CC)C2 (centres unmarked) [compound 21]
Degree of injury [5]: -

CCC1CN2CCO[Si](CCC[S][Sn]([CH]3CCCCC3)([CH]3CCCCC3)[CH]3CCCCC3)(O1)OC(CC)C2 (centres unmarked) [compound 22]
Degree of injury [5]: -~+

CCC[CH2][Sn]([CH2]CCC)([CH2]CCC)[S]CCC[Si]12OCCN(CCO1)CC(CC)O2 (centres unmarked) [compound 25]
Degree of injury [5]: -~+

CCC1CN2CCO[Si](CCC[S][Sn]([CH2]C(C)C)([CH2]C(C)C)[CH2]C(C)C)(O1)OC(CC)C2 (centres unmarked) [compound 28]
Degree of injury [5]: -

CCCCCCC[CH2][Sn]([CH2]CCCCCCC)([CH2]CCCCCCC)[S]CCC[Si]12OCCN(CCO1)CCO2 [compound 29]
Degree of injury [5]: -~+

CCCCCCC[CH2][Sn]([CH2]CCCCCCC)([CH2]CCCCCCC)[S]CCC[Si]12OC(C)CN(CC(C)O1)CC(C)O2 (centres unmarked) [compound 30]
Degree of injury [5]: -

CCC1CN2CCO[Si](CCC[S][Sn]([c]3ccccc3)([c]3ccccc3)[c]3ccccc3)(OCC2)O1 (centres unmarked) [compound 31]
Death rate [2]: B (less than 90% to 10%) | Emergence inhibition rate [2]: A (90% or higher) | Death rate [4]: 100%

CCC1CN2CCO[Si](CCC[S][Sn]([CH2]C(C)(C)c3ccccc3)([CH2]C(C)(C)c3ccccc3)[CH2]C(C)(C)c3ccccc3)(OCC2)O1 (centres unmarked) [compound 33]
Degree of injury [5]: -

CCC1CN2CC(C)O[Si](CCC[S][Sn]([CH2]C(C)(C)c3ccccc3)([CH2]C(C)(C)c3ccccc3)[CH2]C(C)(C)c3ccccc3)(OC(C)C2)O1 (centres unmarked) [compound 34]
Degree of injury [5]: -

CCC1CN2CCO[Si](CCC[S][Sn]([CH]3CCCCC3)([CH]3CCCCC3)[CH]3CCCCC3)(OCC2)O1 (centres unmarked) [compound 36]
Degree of injury [5]: -~+

CCC1CN2CC(C)O[Si](CCC[S][Sn]([CH]3CCCCC3)([CH]3CCCCC3)[CH]3CCCCC3)(OC(C)C2)O1 (centres unmarked) [compound 37]
Degree of injury [5]: -

CC(C)(C)[CH2][Sn]([CH2]C(C)(C)C)([CH2]C(C)(C)C)[S]CC[Si]12OCCN(CCO1)CCO2 [compound 38]
Degree of injury [5]: -

CCO[PH](=O)O [reference compound]
Control index ([1]; 200 ppm active ingredient): 68%
